Test results published in patent US12503485B2, “Human aminosterol ENT-03 compounds, related compositions comprising the same, and methods of using the same” (Enterin, Inc., priority 2019, dated 2025).

Legend:
PTPN12/PTP-PEST = molecular target: T1, PTPN12/PTP-PEST (Homo sapiens, UniProt Q05209); assay: Phosphatase assay PTPN12/PTP-PEST; format: biochemical
T1 construct: purchased Recation Biology Inc

PTPN11/SHP2-FL = molecular target: T2, PTPN11/SHP2-FL (Homo sapiens, UniProt Q06124); assay: Phosphatase assay PTPN11/SHP2-FL with activating peptide; format: biochemical
T2 construct: aa 2-597, isoform 1 (canonical)); StrepII-TEV (N); His-tag (C); purchased Recation Biology Inc; host or cells: E. coli

[1] = molecular target: T3, PP2A Alpha/PP2R1A Complex (Homo sapiens, UniProt P67775); assay: Phosphatase assay PP2A Alpha/PP2R1A Complex; format: biochemical
T3 construct: purchased Recation Biology Inc
T3 sequence (P67775 whole entry): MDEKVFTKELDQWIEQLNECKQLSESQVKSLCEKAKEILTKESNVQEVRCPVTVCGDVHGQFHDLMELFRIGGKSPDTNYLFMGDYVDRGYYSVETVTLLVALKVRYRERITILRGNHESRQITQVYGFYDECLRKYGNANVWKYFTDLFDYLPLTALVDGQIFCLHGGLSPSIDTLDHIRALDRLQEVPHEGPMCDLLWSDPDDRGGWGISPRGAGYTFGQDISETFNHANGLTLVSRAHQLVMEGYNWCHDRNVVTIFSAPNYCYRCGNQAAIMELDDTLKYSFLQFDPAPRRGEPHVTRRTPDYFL
T3 sequence (P30153 whole entry partner): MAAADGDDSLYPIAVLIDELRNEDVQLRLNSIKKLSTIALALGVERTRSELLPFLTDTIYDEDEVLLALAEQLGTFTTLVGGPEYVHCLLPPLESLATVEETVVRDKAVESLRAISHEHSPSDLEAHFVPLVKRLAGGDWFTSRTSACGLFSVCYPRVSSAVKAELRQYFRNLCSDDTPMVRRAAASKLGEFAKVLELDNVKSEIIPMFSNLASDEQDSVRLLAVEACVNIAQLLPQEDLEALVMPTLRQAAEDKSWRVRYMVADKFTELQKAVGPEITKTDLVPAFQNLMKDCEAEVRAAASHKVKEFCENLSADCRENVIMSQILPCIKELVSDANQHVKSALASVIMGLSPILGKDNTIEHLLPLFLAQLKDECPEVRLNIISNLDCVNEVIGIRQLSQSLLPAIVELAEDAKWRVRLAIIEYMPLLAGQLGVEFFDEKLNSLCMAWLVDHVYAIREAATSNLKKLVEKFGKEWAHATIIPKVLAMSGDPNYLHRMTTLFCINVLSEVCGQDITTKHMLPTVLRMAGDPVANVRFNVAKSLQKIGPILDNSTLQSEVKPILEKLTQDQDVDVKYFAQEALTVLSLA

hAPP-J20 mice = assay: Morris water maze, hAPP-J20 Alzheimer's mouse model; format: in vivo
PS19 mice = assay: Morris water maze, PS19 tauopathy mouse model; format: in vivo; conditions: 2.5 mg/kg i.p. once per week for 6 weeks, vs vehicle
[2] = 2.5 mg/kg i.p. once per week for 6 weeks, vs vehicle

T1 sequence (Q05209 whole entry): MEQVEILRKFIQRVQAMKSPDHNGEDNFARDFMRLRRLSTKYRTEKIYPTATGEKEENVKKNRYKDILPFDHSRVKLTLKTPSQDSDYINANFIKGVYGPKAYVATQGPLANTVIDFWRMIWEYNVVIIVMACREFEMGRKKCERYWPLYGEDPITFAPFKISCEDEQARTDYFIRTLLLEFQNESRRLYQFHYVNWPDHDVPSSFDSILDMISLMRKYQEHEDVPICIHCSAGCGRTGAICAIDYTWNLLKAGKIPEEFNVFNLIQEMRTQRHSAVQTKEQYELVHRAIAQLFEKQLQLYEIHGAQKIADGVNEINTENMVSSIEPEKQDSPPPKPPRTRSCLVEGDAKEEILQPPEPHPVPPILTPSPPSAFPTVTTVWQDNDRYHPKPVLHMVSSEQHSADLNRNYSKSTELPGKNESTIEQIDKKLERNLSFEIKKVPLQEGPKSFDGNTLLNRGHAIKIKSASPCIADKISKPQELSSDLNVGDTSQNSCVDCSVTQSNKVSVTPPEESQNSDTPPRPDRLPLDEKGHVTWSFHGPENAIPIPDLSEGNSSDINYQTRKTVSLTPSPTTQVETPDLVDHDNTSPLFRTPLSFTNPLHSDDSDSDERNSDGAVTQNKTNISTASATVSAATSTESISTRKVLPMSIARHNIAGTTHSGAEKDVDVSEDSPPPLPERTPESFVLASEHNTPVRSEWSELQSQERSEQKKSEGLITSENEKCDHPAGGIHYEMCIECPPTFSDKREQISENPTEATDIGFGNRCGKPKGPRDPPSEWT

| Compound | activity on PTPN12/PTP-PEST, in words (PTPN12/PTP-PEST) | activity against full length PTPN11/SHP2, in words (PTPN11/SHP2-FL) | activity at PP2A alpha, in words [1] | IC50 ([1]; Table 2B, read-out: Compound IC50 (M) PP2A Alpha/PP2R1A Complex) [M] | learning during the training phase (hAPP-J20 mice; [2]) | memory on the probe day (hAPP-J20 mice; [2]) | latency to find the hidden platform during the training phase (hAPP-J20 mice; 2.5 mg/kg/wk i.p. over 6 weeks) | learning during the training phase (PS19 mice) | memory on the probe day (PS19 mice) |
| --- | --- | --- | --- | --- | --- | --- | --- | --- | --- |
| CC(C)[C@@H](CC[C@@H](C)[C@H]1CC[C@H]2[C@@H]3[C@H](O)C[C@H]4C[C@@H](NCCCNCCCCNCCCN)CC[C@]4(C)[C@H]3CC[C@]12C)OS(=O)(=O)O (single isomer, unassigned) [ENT-02, trodusquemine] | target | active |  |  |  |  |  |  |  |
| CC(CCCC(C)C1CCC2C3C(O)CC4CC(NCCCNCCCCNCCCN)CCC4(C)C3CCC12C)C(=O)O (single isomer, unassigned; ent-03) [ENT-03, 3-β-Spermino-7α-hydroxy-5α-cholestanoic acid] |  |  | inactive | > 0.0001 | improved | improved | decreased | improved | improved |
